Laboratory results: patent publication US20120040378A1, “Meprobromate Immunoassay” (RANDOX LABORATORIES LIMITED, priority 2010, published 2012)
Converted amounts (≈) assume the structure as drawn.

How the values were obtained:
[1] = test system: carisoprodol-specific antibody raised from Immunogen 2; assay: Immunoassay with carisoprodol-specific antibody raised from Immunogen 2 (Table 1); assay type: binding; settings: Table 1, antibody raised from Immunogen 2 as titled
[2] = cited from earlier work
[3] = test system: Immunalysis immunoassay antibody; settings: Table 2, Immunalysis; data from Robertson and Marinetti, 2003; cited from earlier work
[4] = test system: Ig fractions of the antisera raised to Immunogen 4; assay: Competitive ELISA with antibodies raised to Immunogen 4 (Randox immunoassay of the invention); assay type: binding, sheep; settings: for % CR: based on 100% specificity to meprobamate; for CR (cross-reactivity): relative to meprobamate = 100%
Procedure: An aqueous solution of Immunogen 4 was formulated with Freund's Complete Adjuvant (FCA) to form an emulsion consisting of 2 mg/ml immunogen in 50% (v/v) FCA. Three sheep were immunised with this emulsion (1° immunisation), 0.25 ml being intramuscularly injected at each of four sites in the rump of each animal. Subsequent immunizations (boosts) contained 1 mg/ml immunogen. All boosts were emulsified in 50% (v/v) Freund's Incomplete Adjuvant (FIA) and were administered in the same manner as the 1° immunisation, at monthly intervals for 1 year. Blood sampling took place 7 to 14 days after each boost. Each sample was processed to produce antiserum, which was further purified by caprylic acid and ammonium sulfate precipitation to yield an immunoglobulin (Ig) fraction. The Ig fraction was evaluated by competitive ELISA microtiter plate assay, as described in Example 16.
The wells of an enhanced binding 96 well polystyrene microtiter plate were coated with a mixture of the Ig fractions of the antisera raised to Immunogen 4, diluted in 10 mM Tris, pH8.5 (125 μl/well). The appropriate antibody coating dilution was determined using standard ELISA checkerboard techniques. The plate was incubated for 2 hours at 37° C., washed 4 times with Tris buffered saline containing Tween 20 (TBST) and tapped dry. Standard solutions of meprobamate, carisoprodol and mebutamate were prepared in TBST at 0, 0.1, 1.0, 5, 10, 25, 50 and 100 ng/ml, and 50 μl of each was added to the appropriate wells.
The conjugate prepared in Example 14 diluted in Tris buffer (pH 7.2) containing EDTA, D-mannitol, sucrose, thimerosal and BSA, was added to each of the wells. The appropriate dilution of conjugate was also determined using standard ELISA checkerboard techniques. The plate was incubated at 25° C. for 1 hour. Excess unbound conjugate was removed by washing 6 times over a 10 minute period with TBST. 125 μl of tetramethylbenzidine (TMB) substrate solution was added to each well of the plate that was then incubated for 20 minutes in the dark at room temperature. The reaction was terminated by addition of 125 μl 0.2M H2SO4 to each well. The absorbance was then measured at 450 nm using a microtiter plate reader.

[5] = test system: IDS immunoassay antibody; settings: Table 2, IDS commercial immunoassay; cited from earlier work
[6] = Table 2, Randox immunoassay, concentration producing 50% B/B0
[7] = competitive ELISA, Hapten-B-HRP conjugate, absorbance 450 nm, standard concentration producing 50% B/B0

| SMILES | % CR [1] [%] | IC50 [1] [µg/mL] | serum half-life ([2]; serum) | time detectable in serum ([2]; serum, not detectable beyond this time (Olsen et al 1994)) [h] | excreted unchanged in urine ([2]; single orally administered carisoprodol tablet (350 mg)) | % CR [3] [%] | IC50 [3] [µg/mL] | % CR ([4]; Table 2, Randox immunoassay) [%] | IC50 [4, 6] [µg/mL] | IC50 [4, 7] [µg/mL] | CR (cross-reactivity) ([4]; competitive ELISA) [%] | % CR [5] [%] | IC50 [5] [µg/mL] | plasma half-life ([2]; plasma) [h] | excreted unchanged in the urine ([2]; urine) |
| --- | --- | --- | --- | --- | --- | --- | --- | --- | --- | --- | --- | --- | --- | --- | --- |
| CCCC(C)(COC(N)=O)COC(=O)NC(C)C (centres unmarked) [carisoprodol] | 57 | 0.015 (≈ 0.0576 µM) | under 2 hours | ≤ 12 | less than 1% | 100 | 0.025 (≈ 0.096 µM) | 57 | 0.015 | 0.01515 | 57 | 100 | 0.0006 (≈ 0.0023 µM) |  |  |
| CCC(C)C(C)(COC(N)=O)COC(N)=O (centres unmarked) [mebutamate] |  |  |  |  |  |  |  |  |  |  | 7 |  |  |  |  |
| CCCC(C)(COC(N)=O)COC(N)=O [meprobamate] | 100 | 0.008 (≈ 0.0367 µM) |  |  |  | 19 | 0.132 (≈ 0.605 µM) | 100 | 0.008 | 0.00864 | 100 | <0.01 | >6 | 6 to 16 | 10-12% |
